Measured values from the NIST ThermoML archive (doi:10.1021/je500381c).

Experiment: xn = mol fraction of the nth substance listed
Settings: for mass density / viscosity: 100 kPa, Liquid; for mass density: Vibrating tube method; for surface tension liquid-gas: Drop volume

CC12CC3CC(C)(C1)CC(C)(C3)C2 [1,3,5-trimethyladamantane] + OCC1CCCCC1
Settings | mass density, 293.15 K [kg/m3] | mass density, 298.15 K [kg/m3] | mass density, 303.15 K [kg/m3] | mass density, 308.15 K [kg/m3] | mass density, 313.15 K [kg/m3] | surface tension liquid-gas, 298.15 K [mN/m] | viscosity, 293.15 K [mPa·s] | viscosity, 298.15 K [mPa·s] | viscosity, 303.15 K [mPa·s] | viscosity, 308.15 K [mPa·s]
x2 = 0 | 887.48 | 883.99 | 880.47 | 876.94 | 873.4 | 26.17 | 2.601 | 2.338 | 2.118 | 1.93
x2 = 0.1 | 889.7 | 886.13 | 882.54 | 878.93 | 875.32 | 26.18 | 2.872 | 2.55 | 2.297 | 2.072
x2 = 0.2001 | 892.4 | 888.82 | 885.21 | 881.59 | 877.95 | 26.4 | 3.328 | 2.939 | 2.615 | 2.336
x2 = 0.2997 | 895.41 | 891.83 | 888.21 | 884.59 | 880.94 | 26.77 | 3.955 | 3.455 | 3.041 | 2.694
x2 = 0.4 | 898.82 | 895.23 | 891.61 | 887.97 | 884.32 | 27.22 | 4.859 | 4.184 | 3.639 | 3.187
x2 = 0.4994 | 902.62 | 899.02 | 895.4 | 891.76 | – | 27.65 | 6.211 | 5.256 | 4.492 | 3.876
x2 = 0.5991 | 906.88 | 903.29 | 899.66 | 896.02 | – | 28.16 | 8.288 | 6.866 | 5.76 | 4.884
x2 = 0.7 | 911.64 | 908.13 | 904.52 | 900.87 | – | 28.88 | 11.51 | 9.343 | 7.681 | 6.386
x2 = 0.801 | 917.1 | 913.53 | 909.91 | 906.27 | – | 29.74 | 16.66 | 13.22 | 10.65 | 8.659
x2 = 0.8927 | 922.52 | 918.95 | 915.34 | 911.73 | – | 30.63 | 24.62 | 19.19 | 15.28 | 12.26
